Measured values taken from BindingDB's records for doi:10.1002/cbic.201600573 (X-Chem Pharmaceuticals, 2017).
pIC50: −log10 of the molar value.

These compounds were tested against Tyrosine-protein kinase BTK (Homo sapiens, UniProt Q06187) (assay: BTK FRET Competitive Binding Assay). Details: 30 °C.
Protocol: The BTK time-resolved FRET-based competitive binding assay and cell-based BTK assays have been previously described.[Xu et al., J.Pharmacol. Exp. Ther., 341:90-103] For the BTK Omnia kinetic assay used in the mechanism of action experiments, assay reagents were prepared from the Omnia Y peptide 5 kit as follows: kinase reaction buffer was diluted to 1X in dH2O. A 10X substrate (100 μm) was prepared in dH20. ATP was prepared at 1 mM (10×) in dH2O, and 2 mM (10×) DTT was prepared in dH2O. A master mix of kinase buffer (10×), peptide (10×), and DTT (10×), all at 2 μL, and dH2O (4 μL) was prepared per well. Untagged BTK enzyme was run in a final concentration of 20 nM. Compounds at varying concentrations and ATP dilutions were prepared in 1V kinase buffer. Final compound DMSO concentration was 1.25 %. In a black non-binding plate (Corning 3676), enzyme (5 μL) was added to compound/ATP mix (5 μL). The plate was incubated for 20 min at 30 °C, then master mix (10 μL) was added into each well and mixed. The plate was incubated at 30 °C, and fluorescence intensity readings at λex=360 nm, λem=485 nm was collected at predetermined intervals on the Tecan M1000.

Chain of Tyrosine-protein kinase BTK (Q06187 whole entry): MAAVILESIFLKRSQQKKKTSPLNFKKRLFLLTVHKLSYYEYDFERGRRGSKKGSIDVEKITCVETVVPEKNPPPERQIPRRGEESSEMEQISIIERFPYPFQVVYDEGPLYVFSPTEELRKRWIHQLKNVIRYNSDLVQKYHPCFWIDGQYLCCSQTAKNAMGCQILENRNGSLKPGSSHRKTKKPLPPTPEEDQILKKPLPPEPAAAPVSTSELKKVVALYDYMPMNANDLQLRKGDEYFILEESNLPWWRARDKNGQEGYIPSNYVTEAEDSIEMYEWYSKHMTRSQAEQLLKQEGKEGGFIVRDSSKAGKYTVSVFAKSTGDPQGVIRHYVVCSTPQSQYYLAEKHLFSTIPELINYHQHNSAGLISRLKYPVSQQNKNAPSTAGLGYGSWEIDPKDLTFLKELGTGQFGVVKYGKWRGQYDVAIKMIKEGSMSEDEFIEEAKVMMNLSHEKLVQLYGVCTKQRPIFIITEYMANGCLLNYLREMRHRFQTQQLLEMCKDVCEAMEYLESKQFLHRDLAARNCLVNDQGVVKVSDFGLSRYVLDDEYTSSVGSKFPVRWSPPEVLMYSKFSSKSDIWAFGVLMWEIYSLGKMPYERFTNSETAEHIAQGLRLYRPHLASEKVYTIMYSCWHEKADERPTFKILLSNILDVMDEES

Row | pIC50 | SMILES
1 | 5.60 | CNC(=O)C(Cc1c[nH]c2ncccc12)NC(=O)c1n[nH]c2cccc(CNc3ccc(O)cc3Cl)c12 (stereo not drawn) [BTK inhibitor, 1]
2 | 6.68 | CNC(=O)Cc1cccc(NC(=O)c2n[nH]cc2CNc2ccccc2[C@H](O)c2ccccc2)c1 [BTK inhibitor, 2]
3 | 9.26 | CNC(=O)[C@H]1Cc2c([nH]c3ccccc23)CN1C(=O)c1occc1CNc1ccc2nccnc2c1 [BTK inhibitor, 3]
